pIC50: −log10 of the molar value.
What was measured:
[1] = system: SK-BR-3 and BT-474 breast cancer cells; test: in vitro cellular proliferation assay of free drug and drug-linker; assay type: cell-based
Source text: Pharmaceutical formulations of a therapeutic antibody-drug conjugate (ADC) may contain certain amounts of unreacted drug moiety (D), antibody-linker intermediate (Ab-L), and/or drug-linker intermediate (D-L), as a consequence of incomplete purification and separation of excess reagents, impurities, and by-products, in the process of making the ADC; or time/temperature hydrolysis or degradation upon storage of the bulk ADC or formulated ADC composition. […] Alternatively, or in addition to, it may contain a detectable amount of drug-linker intermediate DM1-SMCC. Alternatively, or in addition to, it may contain a detectable amount of the antibody, trastuzumab.
Efficacy of ADC were measured by a cell proliferation assay employing the following protocol (Promega Corp. Technical Bulletin TB288; Mendoza et al (2002) Cancer Res. 62:5485-5488): • 1. An aliquot of 100 μl of cell culture containing about 10^4 cells (SKBR-3, BT474, MCF7 or MDA-MB-468) in medium was deposited in each well of a 96-well, opaque-walled plate. • 2. Control wells were prepared containing medium and without cells. • 3. ADC was added to the experimental wells and incubated for 3-5 days. • 4. The plates were equilibrated to room temperature for approximately 30 minutes. • 5. A volume of CellTiter-Glo Reagent equal to the volume of cell culture medium present in each well was added. • 6. The contents were mixed for 2 minutes on an orbital shaker to induce cell lysis. • 7. The plate was incubated at room temperature for 10 minutes to stabilize the luminescence signal. • 8. Luminescence was recorded and reported in graphs as RLU=relative luminescence units.

[2] = 5-day acute toxicity study in rats; assay type: in vivo, female Sprague-Dawley rats; conditions: free DM1, 160 μg/kg (Group 6)
Procedure: Antibody-drug conjugates and an ADC-minus control, “Vehicle”, were evaluated in an acute toxicity rat model. Toxicity of ADC was investigated by treatment of female Sprague-Dawley rats with the ADC and subsequent inspection and analysis of the effects on various organs. Based on gross observations (body weights), clinical pathology parameters (serum chemistry and hematology) and histopathology, the toxicity of ADC may be observed, characterized, and measured.
Body weight was measured daily. Clinical chemistry, serum enzymes and hematology analysis was conducted on days 3 and 5; concluding with complete necropsy with histopathological assessment.
Animals were injected on day 1, complete chemistry and hematology profiles were obtained at baseline, day 3 and day 5 and a complete necropsy was performed on day 5. Routine histology was performed on three random animals for each group for the following tissues: sternum, liver, kidney, thymus, spleen, large and small intestine.

## COc1cc2cc(c1Cl)N(C)C(=O)C[C@H](OC(=O)[C@H](C)N(C)C(=O)CCS)[C@]1(C)O[C@H]1[C@H](C)[C@@H]1C[C@@](O)(NC(=O)O1)[C@H](OC)/C=C/C=C(\C)C2 [DM1, N^2′-deacetyl-N^2′-(3-mercapto-1-oxopropyl)-maytansine]
[1]
  pIC50: 8.35
[2]
  severity of toxicity: less than that seen in animals of Group 2

## COc1cc2cc(c1Cl)N(C)C(=O)C[C@H](OC(=O)[C@H](C)N(C)C(=O)CCSC1CC(=O)N(CC3CCC(C(=O)ON4C(=O)CCC4=O)CC3)C1=O)[C@]1(C)O[C@H]1[C@H](C)[C@@H]1C[C@@](O)(NC(=O)O1)[C@H](OC)/C=C/C=C(\C)C2 (stereo partly shown) [DM1-SMCC]
[1]
  pIC50: 7.30
  times less potent in cell killing than free drug DM1: about 20 times
